Measurements taken from patent US11407737B2, “Inhibitors of RAF kinases” (Kinnate Biopharma Inc., priority 2020, dated 2022).

Target: human RAF1 (Homo sapiens (Human), UniProt P04049)
Test: Protein kinase assay (radiometric 33P-ATP, MEK1 (K97R) substrate), RAF-1
Type: biochemical
Conditions: human MEK1 (K97R) substrate 3 micromolar, ATP 10 micromolar; 10-dose, 3-fold serial dilution starting at 10 micromolar; read-out: RAF-1 IC50
How it was run: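 Radiometric filter-binding assay with RAF1 and MEK1 (K97R) substrate at 3 micromolar and 10 micromolar final ATP, in HEPES pH 7.5 buffer with 1% DMSO. Reactions ran 2 hr at room temperature with [γ-33P]ATP. IC50 was derived from remaining activity relative to DMSO control.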

human RAF1, sequence (P04049 whole entry): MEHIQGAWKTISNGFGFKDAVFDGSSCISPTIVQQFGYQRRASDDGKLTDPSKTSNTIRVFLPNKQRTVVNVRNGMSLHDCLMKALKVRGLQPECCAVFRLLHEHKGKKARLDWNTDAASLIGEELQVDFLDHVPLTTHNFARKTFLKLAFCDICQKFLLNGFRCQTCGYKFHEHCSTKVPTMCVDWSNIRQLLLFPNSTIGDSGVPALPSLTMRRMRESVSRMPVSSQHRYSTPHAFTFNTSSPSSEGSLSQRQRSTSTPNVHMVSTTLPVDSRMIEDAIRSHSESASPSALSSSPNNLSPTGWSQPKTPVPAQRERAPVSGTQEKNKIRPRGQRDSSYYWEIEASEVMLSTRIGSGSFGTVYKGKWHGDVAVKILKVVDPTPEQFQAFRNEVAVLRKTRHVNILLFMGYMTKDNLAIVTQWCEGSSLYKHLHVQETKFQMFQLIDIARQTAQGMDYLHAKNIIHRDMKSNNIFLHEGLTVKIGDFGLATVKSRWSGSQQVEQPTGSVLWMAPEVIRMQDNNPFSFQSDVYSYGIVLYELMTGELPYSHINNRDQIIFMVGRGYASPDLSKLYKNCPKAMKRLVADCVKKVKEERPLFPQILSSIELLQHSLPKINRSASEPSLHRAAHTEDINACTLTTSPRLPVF

| SMILES | IC50 [nM] |
| --- | --- |
| Cc1ccc(NC(=O)N2CC[C@@H](CC(F)(F)F)C2)cc1-c1cc(-c2cnn(C)c2)nc(N2CCOCC2)c1 [Example 22, (3S)—N-[4-methyl-3-[2-(1-methylpyrazol-4-yl)-6-(morpholin-4-yl)pyridin-4-yl]phenyl]-3-(2,2,2-trifluoroethyl)pyrrolidine-1-carboxamide] | < 1 |
| Cc1ccc(NC(=O)N2CC[C@@H](CC(F)(F)F)C2)cc1-c1cc(-c2cc(N)n(C)n2)nc(N2CCOCC2)c1 [Example 44, (3S)-N-[3-[2-(5-amino-1-methylpyrazol-3-yl)-6-(morpholin-4-yl)pyridin-4-yl]-4-methylphenyl]-3-(2,2,2-trif1uoroethyl)pyrrolidine-1-carboxamide] | 1 to 10 |
| Cc1ccc(NC(=O)N2CC[C@@H](CC(F)(F)F)C2)cc1-c1cc(C(=O)N2CC(C)(O)C2)nc(N2CCOCC2)c1 [Example 21, (3S)—N-[3-[2-(3-hydroxy-3-methylazetidine-1-carbonyl)-6-(morpholin-4-yl)pyridin-4-yl]-4-methylphenyl]-3-(2,2,2-trifluoroethyl)pyrrolidine-1-carboxamide] | < 1 |
| Cc1cc(F)c(NC(=O)N2CC=C(C(F)(F)F)C2)cc1-c1cc(-c2cnn(C)c2)nc(N2CCOCC2)c1 [Example 69, N-{2-fluoro-4-methyl-5-[2-(1-methylpyrazol-4-yl)-6-(morpholin-4-yl)pyridin-4-yl]phenyl}-3-(trifluoromethyl)-2,5-dihydropyrrole-1-carboxamide] | < 1 |

The next lines start with the values.

| IC50 [nM] | SMILES |
| --- | --- |
| 1 to 10 | Cc1ccc(NC(=O)N2CCO[C@@H](C(F)(F)F)C2)cc1-c1cc(-c2cnn(C)c2)nc(N2CCOCC2)c1 [Example 63, (2R)—N-{4-methyl-3-[2-(1-methylpyrazol-4-yl)-6-(morpholin-4-yl)pyridin-4-yl]phenyl}-2-(trifluoromethyl)morpholine-4-carboxamide] |
| 1 to 10 | Cc1ccc(NC(=O)N2CC[C@@H](CC(F)(F)F)C2)cc1-c1cc(-c2ccnn2CCO)nc(N2CCOCC2)c1 [Example 59, (3S)—N-(3-{2-[2-(2-hydroxyethyl)pyrazol-3-yl]-6-(morpholin-4-yl)pyridin-4-yl}-4-methylphenyl)-3-(2,2,2-trifluoroethyl)pyrrolidine-1-carboxamide] |
| 1 to 10 | Cc1cc(F)c(NC(=O)N2CC=C(C(F)(F)C(F)(F)F)C2)cc1-c1cc(-c2cnn(C)c2)nc(N2CCOCC2)c1 [Example 79, N-{2-fluoro-4-methyl-5-[2-(1-methylpyrazol-4-yl)-6-(morpholin-4-yl)pyridin-4-yl]phenyl}-3-(1,1,2,2,2-pentafluoroethyl)-2,5-dihydropyrrole-1-carboxamide] |
| 1 to 10 | Cc1cc(F)c(NC(=O)N2CC[C@@H](C(C)(C)C)C2)cc1-c1cc(-c2cnn(C)c2)nc(N2CCOCC2)c1 (single isomer, unassigned) [Example 82] |
